# From ChEMBL document CHEMBL1201862, “PubChem BioAssay data set” (2004)
#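 Assay format: 96-well plates, 48-hour exposure. GI50 is the concentration that inhibits growth by half.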 Activity calls are given as the source filed them. Rule as the data show it: active = GI50 up to about 1.1 µM and inactive = higher.
# Columns and labels:
# Assay in all cases: NCI tumour cell line growth inhibition, 48 h
# [1] = system: K562
# [2] = system: UACC-62
# [3] = system: SK-MEL-5
# [4] = system: KM-20L2
# [5] = system: A549
# [6] = system: COLO 205
# [7] = system: U-251
# [8] = system: UO-31
# [9] = system: CCRF-CEM
# [10] = system: NCI-H460
# [11] = system: SNB-75
# [12] = system: HOP-62
# [13] = system: OVCAR-5
# [14] = system: UACC-257
# [15] = system: HOP-18
# [16] = system: EKVX
# [17] = system: SNB-78
# [18] = system: ACHN
# [19] = system: NCI-H522
# [20] = system: DMS-273
# [21] = system: RPMI-8226
# [22] = system: SN12C
# [23] = system: 786-0
# [24] = system: NCI-H23
# [25] = system: TK-10
# [26] = system: OVCAR-3
# [27] = system: KM12
# [28] = system: OVCAR-4
# [29] = system: M19-MEL
# [30] = system: HCT-116
# [31] = system: SF-268
# [32] = system: MOLT-4
# [33] = system: CAKI-1
# [34] = system: SK-MEL-28
# [35] = system: SF-295
# [36] = system: LOX IMVI
# [37] = system: A498
# [38] = system: HOP-92
# [39] = system: HCT-15
# [40] = system: SK-OV-3
# [41] = system: OVCAR-8
# [42] = system: Malme-3M
# [43] = system: SNB-19
# [44] = system: HT-29
# [45] = system: SF-539
# [46] = system: DLD-1
# [47] = system: NCI-H226
# [48] = system: SK-MEL-2
# [49] = system: HL-60
# [50] = system: IGROV-1
# [51] = system: LXFL 529
# [52] = system: HCC 2998
# [53] = system: M14
# [54] = system: SW-620
# [55] = system: RXF 393
# [56] = system: SR
# [57] = system: DMS-114
# [58] = system: XF498
compound,measurement,setting,value
COc1ccc2nc(NC(=O)C(=O)C(C#N)c3ccc(CC#N)cc3)sc2c1 (stereo unspecified),GI50,[1],> 100 µM (inactive)
same,GI50,[2],92.9 µM (inactive)
same,GI50,[3],> 100 µM (inactive)
same,GI50,[4],> 100 µM (inactive)
same,GI50,[5],> 100 µM (inactive)
same,GI50,[6],> 100 µM (inactive)
same,GI50,[7],> 100 µM (inactive)
same,GI50,[8],54.6 µM (inactive)
same,GI50,[9],> 100 µM (inactive)
same,GI50,[10],> 100 µM (inactive)
same,GI50,[11],> 100 µM (inactive)
same,GI50,[12],> 100 µM (inactive)
same,GI50,[13],> 100 µM (inactive)
same,GI50,[14],> 100 µM (inactive)
same,GI50,[15],> 100 µM (inactive)
same,GI50,[16],33.5 µM (inactive)
same,GI50,[17],> 100 µM (inactive)
same,GI50,[18],> 100 µM (inactive)
same,GI50,[19],> 100 µM (inactive)
same,GI50,[20],> 100 µM (inactive)
same,GI50,[21],> 100 µM (inactive)
same,GI50,[22],> 100 µM (inactive)
same,GI50,[23],> 100 µM (inactive)
same,GI50,[24],> 100 µM (inactive)
same,GI50,[25],> 100 µM (inactive)
same,GI50,[26],> 100 µM (inactive)
same,GI50,[27],> 100 µM (inactive)
same,GI50,[28],> 100 µM (inactive)
same,GI50,[29],> 100 µM (inactive)
same,GI50,[30],> 100 µM (inactive)
same,GI50,[31],> 100 µM (inactive)
same,GI50,[32],> 100 µM (inactive)
same,GI50,[33],> 100 µM (inactive)
same,GI50,[34],> 100 µM (inactive)
same,GI50,[35],> 100 µM (inactive)
same,GI50,[36],> 100 µM (inactive)
same,GI50,[37],> 100 µM (inactive)
same,GI50,[38],96.8 µM (inactive)
same,GI50,[39],> 100 µM
same,GI50,[40],> 100 µM (inactive)
same,GI50,[41],> 100 µM (inactive)
same,GI50,[42],> 100 µM (inactive)
same,GI50,[43],53 µM (inactive)
same,GI50,[44],> 100 µM (inactive)
same,GI50,[45],> 100 µM (inactive)
same,GI50,[46],> 100 µM (inactive)
same,GI50,[47],> 100 µM (inactive)
same,GI50,[48],> 100 µM (inactive)
same,GI50,[49],> 100 µM (inactive)
same,GI50,[50],> 100 µM (inactive)
same,GI50,[51],> 100 µM (inactive)
same,GI50,[52],> 100 µM (inactive)
same,GI50,[53],> 100 µM (inactive)
same,GI50,[54],> 100 µM (inactive)
same,GI50,[55],> 100 µM (inactive)
CN(C)CCSc1nccc(-c2cc3ccccc3s2)n1,GI50,[2],20.4 µM (inactive)
same,GI50,[3],14.3 µM (inactive)
same,GI50,[5],17.6 µM (inactive)
same,GI50,[6],17.2 µM (inactive)
same,GI50,[7],20.2 µM (inactive)
same,GI50,[8],19.1 µM (inactive)
same,GI50,[9],20 µM (inactive)
same,GI50,[10],13.8 µM (inactive)
same,GI50,[11],54 µM (inactive)
same,GI50,[12],23.8 µM (inactive)
same,GI50,[13],27.2 µM (inactive)
same,GI50,[14],> 10 µM (inactive)
same,GI50,[15],< 0.01 µM (active)
same,GI50,[17],16.3 µM (inactive)
same,GI50,[19],20.1 µM (inactive)
same,GI50,[20],15.9 µM (inactive)
same,GI50,[22],30.4 µM (inactive)
same,GI50,[23],24.2 µM (inactive)
same,GI50,[24],> 10 µM (inactive)
same,GI50,[25],> 10 µM (inactive)
same,GI50,[26],44.5 µM (inactive)
same,GI50,[27],19.3 µM (inactive)
same,GI50,[56],19.2 µM (inactive)
same,GI50,[28],38.5 µM (inactive)
same,GI50,[30],24.4 µM (inactive)
same,GI50,[32],26.2 µM (inactive)
same,GI50,[33],25.8 µM (inactive)
same,GI50,[34],20 µM (inactive)
same,GI50,[35],16.2 µM (inactive)
same,GI50,[36],17.1 µM (inactive)
same,GI50,[37],20.1 µM (inactive)
same,GI50,[38],2.87 µM (inactive)
same,GI50,[39],18.6 µM
same,GI50,[40],37.3 µM (inactive)
same,GI50,[41],22.3 µM (inactive)
same,GI50,[42],19.5 µM (inactive)
same,GI50,[44],9.06 µM (inactive)
same,GI50,[57],23.2 µM (inactive)
same,GI50,[45],18.2 µM (inactive)
same,GI50,[46],32.6 µM (inactive)
same,GI50,[47],14.9 µM (inactive)
same,GI50,[48],17.3 µM (inactive)
same,GI50,[50],42.3 µM (inactive)
same,GI50,[51],16.8 µM (inactive)
same,GI50,[52],15.7 µM (inactive)
same,GI50,[53],15.6 µM (inactive)
same,GI50,[54],19 µM (inactive)
same,GI50,[55],18.5 µM (inactive)
CC(=O)OCc1nnn2c1CCC2,GI50,[1],> 100 µM (inactive)
same,GI50,[2],> 100 µM (inactive)
same,GI50,[3],> 100 µM (inactive)
same,GI50,[4],> 100 µM (inactive)
same,GI50,[5],> 100 µM (inactive)
same,GI50,[7],> 100 µM (inactive)
same,GI50,[8],> 100 µM (inactive)
same,GI50,[9],> 100 µM (inactive)
same,GI50,[10],> 100 µM (inactive)
same,GI50,[11],> 100 µM (inactive)
same,GI50,[12],> 100 µM (inactive)
same,GI50,[13],> 100 µM (inactive)
same,GI50,[14],> 100 µM (inactive)
same,GI50,[15],> 100 µM (inactive)
same,GI50,[16],> 100 µM (inactive)
same,GI50,[17],> 100 µM (inactive)
same,GI50,[18],> 100 µM (inactive)
same,GI50,[19],> 100 µM (inactive)
same,GI50,[22],> 100 µM (inactive)
same,GI50,[24],> 10 µM (inactive)
same,GI50,[25],> 100 µM (inactive)
same,GI50,[58],> 100 µM (inactive)
same,GI50,[26],> 100 µM (inactive)
same,GI50,[27],> 100 µM (inactive)
same,GI50,[56],> 100 µM (inactive)
same,GI50,[28],> 100 µM (inactive)
same,GI50,[29],> 100 µM (inactive)
same,GI50,[30],> 100 µM (inactive)
same,GI50,[32],> 100 µM (inactive)
same,GI50,[34],> 100 µM (inactive)
same,GI50,[35],> 100 µM (inactive)
same,GI50,[36],> 100 µM (inactive)
same,GI50,[38],> 100 µM (inactive)
same,GI50,[39],> 100 µM
same,GI50,[40],> 100 µM (inactive)
same,GI50,[41],> 100 µM (inactive)
same,GI50,[42],> 100 µM (inactive)
same,GI50,[44],> 100 µM (inactive)
same,GI50,[45],> 100 µM (inactive)
same,GI50,[46],> 100 µM (inactive)
same,GI50,[48],> 100 µM (inactive)
same,GI50,[49],> 100 µM (inactive)
same,GI50,[50],> 100 µM (inactive)
same,GI50,[51],> 100 µM (inactive)
same,GI50,[52],> 100 µM (inactive)
same,GI50,[53],> 100 µM (inactive)
same,GI50,[54],> 100 µM (inactive)
same,GI50,[55],> 100 µM (inactive)
